# Like-named read-outs stand apart in the source and are kept apart here.
# Experiments:
# Assay type in all cases: cell-based
# [1] = test system: Neisseria meningitidis A20048; experiment: MIC, serial two-fold dilution method (aerobic)
# [2] = test system: Streptococcus pyogenes Dick; experiment: MIC, serial two-fold dilution method (aerobic); conditions: read-out: minimum inhibitory concentration (MIC)
# Sarcina lutea PCI-1001 = experiment: MIC, serial two-fold dilution method (aerobic); conditions: Micrococcus luteus
# [3] = test system: Staphylococcus aureus A22421; experiment: MIC, serial two-fold dilution method (aerobic)
# [4] = test system: Clostridium perfringens A9635; experiment: microbe, parasite or virus in culture; conditions: Clostridium perfringens, A9635, read-out: minimum inhibitory concentration (MIC)
# S. aureus 209P = experiment: Antibiotic sensitivity, paper disc-agar diffusion method; set-up: key: S (sensitive); R (resistant); I (intermediate); conditions: nutrient agar, 2 day's incubation at 28° C., Difco discs, amount/disc per antibiotic
# [5] = test system: Staphylococcus aureus A9748; experiment: MIC, serial two-fold dilution method (aerobic)
# [6] = test system: Pseudomonas aeruginosa D-113; experiment: MIC, serial two-fold dilution method (aerobic)
# [7] = test system: Staphylococcus aureus Smith; experiment: MIC, serial two-fold dilution method (aerobic); conditions: read-out: minimum inhibitory concentration (MIC)
# [8] = test system: Peptostreptococcus anaerobius A21905; experiment: MIC, serial two-fold dilution method (anaerobic)
# Proteus vulgaris A9436 = experiment: MIC, serial two-fold dilution method (aerobic)
# [9] = test system: Propionibacterium acnes A21953; experiment: MIC, serial two-fold dilution method (anaerobic); conditions: Cutibacterium acnes
# [10] = test system: Bacteroides ovatus A22400; experiment: MIC, serial two-fold dilution method (anaerobic)
# [11] = test system: Staphylococcus aureus #193; experiment: MIC, serial two-fold dilution method (aerobic); conditions: read-out: minimum inhibitory concentration (MIC)
# [12] = test system: Staphylococcus aureus A20239; experiment: MIC, serial two-fold dilution method (aerobic)
# [13] = test system: Staphylococcus aureus A9856; experiment: MIC, serial two-fold dilution method (aerobic)
# [14] = test system: Staphylococcus aureus BX-1633; experiment: MIC, serial two-fold dilution method (aerobic)
# [15] = test system: Bacteroides fragilis CUH-9; experiment: MIC, serial two-fold dilution method (anaerobic)
# [16] = test system: Bacteroides fragilis A22533; experiment: MIC, serial two-fold dilution method (anaerobic)
# [17] = test system: Streptococcus pyogenes A9604; experiment: MIC, serial two-fold dilution method (aerobic)
# [18] = test system: Clostridium ramosum A21970; experiment: MIC, serial two-fold dilution method (anaerobic); conditions: Thomasclavelia ramosa
# [19] = test system: Klebsiella pneumoniae D-11; experiment: MIC, serial two-fold dilution method (aerobic)
# [20] = test system: Bacteroides fragilis A22053; experiment: MIC, serial two-fold dilution method (anaerobic)
# [21] = test system: Bacillus anthracis IID-115; experiment: microbe, parasite or virus in culture; conditions: Bacillus anthracis, IID115, read-out: minimum inhibitory concentration (MIC)
# [22] = test system: Peptococcus magnas A21676; experiment: MIC, serial two-fold dilution method (anaerobic); conditions: read-out: minimum inhibitory concentration (MIC)
# [23] = test system: Bacteroides fragilis CUH-24; experiment: MIC, serial two-fold dilution method (anaerobic)
# [24] = test system: Bacillus subtilis ATCC 6633; experiment: MIC, serial two-fold dilution method (aerobic)
# [25] = test system: Bacteroides fragilis A21900; experiment: MIC, serial two-fold dilution method (anaerobic)
# [26] = test system: Fusobacterium nucleatum A21906; experiment: MIC, serial two-fold dilution method (anaerobic)
structure (smiles),measurement,setting,value
CC1(C)S[C@@H]2[C@H](NC(=O)[C@H](N)c3ccccc3)C(=O)N2[C@H]1C(=O)O [Ampicillin],MIC,"[1]; Neisseria meningitidis A20048, GC medium, inoculum 10^6 CFU/ml, read-out: minimum inhibitory concentration (MIC)",0.4 µg/mL
same,MIC,"[2]; Streptococcus pyogenes Dick, GC medium, inoculum 10^6 CFU/ml",0.013 µg/mL
same,MIC,"Sarcina lutea PCI-1001; PCI1001, Sarcina lutea PCI-1001, Mueller-Hinton agar, inoculum 10^4, read-out: minimum inhibitory concentration (MIC)",< 0.05 µg/mL
same,MIC,"[3]; Staphylococcus aureus A22421, Mueller-Hinton agar, inoculum 10^4, read-out: minimum inhibitory concentration (MIC)",12.5 µg/mL
same,MIC,[4],0.2 µg/mL
same,Sensitivity S. aureus 209P,S. aureus 209P,S
same,MIC,"[5]; Staphylococcus aureus A9748, Mueller-Hinton agar, inoculum 10^4, read-out: minimum inhibitory concentration (MIC)",25 µg/mL
same,MIC,"[6]; D113, Pseudomonas aeruginosa D-113, Mueller-Hinton agar, inoculum 10^4, read-out: minimum inhibitory concentration (MIC)",> 100 µg/mL
same,MIC,"[7]; Staphylococcus aureus Smith, Mueller-Hinton agar, inoculum 10^4",0.05 µg/mL
same,MIC,"[8]; Peptostreptococcus anaerobius A21905, GAM agar medium, inoculum 10^7-10^8, read-out: minimum inhibitory concentration (MIC)",0.1 µg/mL
same,MIC,"Proteus vulgaris A9436; Proteus vulgaris A9436, Mueller-Hinton agar, inoculum 10^4, read-out: minimum inhibitory concentration (MIC)",0.4 µg/mL
same,MIC,"[9]; Propionibacterium acnes A21953, GAM agar medium, inoculum 10^7-10^8, read-out: minimum inhibitory concentration (MIC)",< 0.0063 µg/mL
same,MIC,"[10]; Bacteroides ovatus A22400, GAM agar medium, inoculum 10^7-10^8, read-out: minimum inhibitory concentration (MIC)",25 µg/mL
same,MIC,"[11]; Staphylococcus aureus #193, Mueller-Hinton agar, inoculum 10^4",1.6 µg/mL
same,MIC,"[12]; Staphylococcus aureus A20239, Mueller-Hinton agar, inoculum 10^4, read-out: minimum inhibitory concentration (MIC)",1.6 µg/mL
same,MIC,"[13]; Staphylococcus aureus A9856, Mueller-Hinton agar, inoculum 10^4, read-out: minimum inhibitory concentration (MIC)",0.05 µg/mL
same,MIC,"[14]; BX1633, Staphylococcus aureus BX-1633, Mueller-Hinton agar, inoculum 10^4, read-out: minimum inhibitory concentration (MIC)",3.1 µg/mL
same,MIC,"[15]; CUH9, Bacteroides fragilis CUH-9, GAM agar medium, inoculum 10^7-10^8, read-out: minimum inhibitory concentration (MIC)",3.1 µg/mL
same,MIC,"[16]; Bacteroides fragilis A22533, GAM agar medium, inoculum 10^7-10^8, read-out: minimum inhibitory concentration (MIC)",> 100 µg/mL
same,MIC,"[17]; Streptococcus pyogenes A9604, GC medium, inoculum 10^6 CFU/ml, read-out: minimum inhibitory concentration (MIC)",0.013 µg/mL
same,MIC,"[18]; Clostridium ramosum A21970, GAM agar medium, inoculum 10^7-10^8, read-out: minimum inhibitory concentration (MIC)",0.8 µg/mL
same,MIC,"[19]; D11, Klebsiella pneumoniae D-11, Mueller-Hinton agar, inoculum 10^4, read-out: minimum inhibitory concentration (MIC)",0.8 µg/mL
same,MIC,"[20]; Bacteroides fragilis A22053, GAM agar medium, inoculum 10^7-10^8, read-out: minimum inhibitory concentration (MIC)",6.3 µg/mL
same,MIC,[21],0.013 µg/mL
same,MIC,"[22]; Peptococcus magnas A21676, GAM agar medium, inoculum 10^7-10^8",0.1 µg/mL
same,MIC,"[23]; CUH24, Bacteroides fragilis CUH-24, GAM agar medium, inoculum 10^7-10^8, read-out: minimum inhibitory concentration (MIC)",50 µg/mL
same,MIC,"[24]; ATCC6633, Bacillus subtilis ATCC 6633, Mueller-Hinton agar, inoculum 10^4, read-out: minimum inhibitory concentration (MIC)",0.013 µg/mL
same,MIC,"[25]; Bacteroides fragilis A21900, GAM agar medium, inoculum 10^7-10^8, read-out: minimum inhibitory concentration (MIC)",0.2 µg/mL
same,MIC,"[26]; Fusobacterium nucleatum A21906, GAM agar medium, inoculum 10^7-10^8, read-out: minimum inhibitory concentration (MIC)",12.5 µg/mL
CN[C@H](CC(C)C)C(=O)N[C@H]1C(=O)N[C@@H](CC(N)=O)C(=O)N[C@H]2C(=O)N[C@H]3C(=O)N[C@H](C(=O)N[C@H](C(=O)O)c4cc(O)cc(O)c4-c4cc3ccc4O)[C@H](O)c3ccc(c(Cl)c3)Oc3cc2cc(c3O[C@@H]2O[C@H](CO)[C@@H](O)[C@H](O)[C@H]2O[C@H]2C[C@](C)(N)[C@H](O)[C@H](C)O2)Oc2ccc(cc2Cl)[C@H]1O [Vancomycin],MIC,"[1]; Neisseria meningitidis, A20048, read-out: minimum inhibitory concentration (MIC)",> 100 µg/mL
same,MIC,[2]; Streptococcus pyogenes,0.8 µg/mL
same,MIC,"Sarcina lutea PCI-1001; PCI1001, read-out: minimum inhibitory concentration (MIC)",0.4 µg/mL
same,MIC,"[3]; Staphylococcus aureus, A22421, read-out: minimum inhibitory concentration (MIC)",0.8 µg/mL
same,MIC,[4],1.6 µg/mL
same,MIC,"[5]; Staphylococcus aureus, A9748, read-out: minimum inhibitory concentration (MIC)",0.8 µg/mL
same,MIC,"[6]; Pseudomonas aeruginosa, D113, read-out: minimum inhibitory concentration (MIC)",> 100 µg/mL
same,MIC,[7]; Staphylococcus aureus,0.8 µg/mL
same,MIC,"[8]; Peptostreptococcus anaerobius, A21905, read-out: minimum inhibitory concentration (MIC)",0.4 µg/mL
same,MIC,"Proteus vulgaris A9436; Proteus vulgaris, A9436, read-out: minimum inhibitory concentration (MIC)",> 100 µg/mL
same,MIC,"[9]; A21953, read-out: minimum inhibitory concentration (MIC)",0.8 µg/mL
same,MIC,"[10]; Bacteroides ovatus, A22400, read-out: minimum inhibitory concentration (MIC)",50 µg/mL
same,MIC,[11]; Staphylococcus aureus,0.8 µg/mL
same,MIC,"[12]; Staphylococcus aureus, A20239, read-out: minimum inhibitory concentration (MIC)",1.6 µg/mL
same,MIC,"[13]; Staphylococcus aureus, A9856, read-out: minimum inhibitory concentration (MIC)",0.8 µg/mL
same,MIC,"[14]; Staphylococcus aureus, BX1633, read-out: minimum inhibitory concentration (MIC)",0.8 µg/mL
same,MIC,"[15]; Bacteroides fragilis, CUH9, read-out: minimum inhibitory concentration (MIC)",50 µg/mL
same,MIC,"[16]; Bacteroides fragilis, A22533, read-out: minimum inhibitory concentration (MIC)",50 µg/mL
same,MIC,"[17]; Streptococcus pyogenes, A9604, read-out: minimum inhibitory concentration (MIC)",0.4 µg/mL
same,MIC,"[18]; A21970, read-out: minimum inhibitory concentration (MIC)",> 100 µg/mL
same,MIC,"[19]; Klebsiella pneumoniae, D11, read-out: minimum inhibitory concentration (MIC)",> 100 µg/mL
same,MIC,"[20]; Bacteroides fragilis, A22053, read-out: minimum inhibitory concentration (MIC)",50 µg/mL
same,MIC,[21],1.6 µg/mL
same,MIC,[22],< 0.05 µg/mL
same,MIC,"[23]; Bacteroides fragilis, CUH24, read-out: minimum inhibitory concentration (MIC)",25 µg/mL
same,MIC,"[24]; Bacillus subtilis, ATCC6633, read-out: minimum inhibitory concentration (MIC)",0.1 µg/mL
same,MIC,"[25]; Bacteroides fragilis, A21900, read-out: minimum inhibitory concentration (MIC)",6.3 µg/mL
same,MIC,"[26]; Fusobacterium nucleatum, A21906, read-out: minimum inhibitory concentration (MIC)",0.8 µg/mL
